melting point	SMILES
180 °C	Cn1cnc2c(OC3SCC(O)C(O)C3O)cccc21 (stereo not drawn)
257 °C	Cc1cc(-c2ccc(C(F)(F)F)cc2)cn2c(-c3nc(-c4ccc(N)nc4)no3)cnc12
58 to 60 °C	CCOC(=O)COc1coccc1=O
101 to 103 °C	CN[C@@H](CC(C)C)C(=O)O
116 to 118 °C	CC(O)(C#Cc1ccc(C(=O)c2ccccn2)cc1)C(F)(F)F (stereo not drawn)
159 to 161 °C	CCCCc1ncc(C(=O)OCC)c(N(C)Cc2ccc(-c3ccccc3-c3nnn[nH]3)cc2)n1
144 to 146 °C	Oc1ccc(SSc2ccc(O)cc2)cc1
170 °C	CN(CCCN1CCN(c2ccccc2C2CC2)CC1)c1nccc(C(N)=O)n1
98 to 100 °C	CCOC(=O)C=C(c1ccc(-c2ccccc2)cc1)C1(n2cncn2)CC1
159 °C	CCc1cccc(-c2c(-c3ccc4nn(C)cc4c3)nsc2NC(=O)[C@@H]2C[C@H]2C)n1
106 to 110 °C	CCC(CC1(c2ccc(Cl)c(Cl)c2)CCC1)=NO
72 to 74 °C	CCCCC1OC(=O)c2cc(NC(C)C)ccc21 (stereo not drawn)
> 250 °C	Nc1nc2c(s1)CCN(C(=O)c1ccc(NC(=O)c3ccccc3-c3ccccc3)cc1)c1ccccc1-2
203 to 205 °C	CN1CC(c2cc(CCc3ccccc3)cnn2)=C(O)C1=O
248 °C	O=C(O)c1nc2c(=O)[nH]c3cc(C(F)(F)F)ccc3n2c1CNCc1ccccc1
108 to 111 °C	CC(C(=O)N(C)C)n1cc(Cl)c(-c2ccccc2Cl)n1 (stereo not drawn)
238 to 240 °C	CNc1nc(-c2cccc(C(=O)Nc3cccnc3)c2)c2cc(OC)c(OC)cc2n1
88 to 90 °C	CC(=O)OCCOc1cc(-n2c(=O)cc(C(F)(F)F)n(C)c2=O)c(F)cc1Cl
151 to 153 °C	COc1ccc2c(C)nnc(Cl)c2c1
95 to 96 °C	C=CC(=O)NC(C)(C)COc1ccc(Cl)cc1
250 to 252 °C	COc1nc(C)c(N2CCCn3c2nc2c(C#N)ccc(C(OC(F)F)C(F)(F)F)c23)c(C)n1 (stereo not drawn)
191 °C	Cc1ccc(-c2ncccc2OC2SCC(O)C(O)C2O)o1 (stereo not drawn)
85.5 to 86.5 °C	CCOC(=O)c1c(-c2ccc(F)cc2)c2n(c1C(C)C)CCCC2
140 °C	CCOC(=O)c1ccc2oc(CN3CCN(c4ccc(Cl)nn4)CC3)nc2c1
146 to 148 °C	CCC(c1cc2c(-c3ccc(C(F)(F)F)n(C)c3=O)c(F)cc(Cl)c2o1)S(C)(=O)=O (stereo not drawn)
156 to 157 °C	CN(C)C(=O)c1c(-c2ccc(N(C)C)cc2)ccc2ccccc12
198 °C	Cc1nc2n(C)ccn2c(=O)c1CCCl
181 to 182 °C	O=C(NCCCCCCNC(=O)N(O)Cc1ccccc1)N(O)Cc1ccccc1
124 to 126 °C	COc1ncc(NS(=O)(=O)c2cccc(Cl)c2Cl)c(OC)n1

The remaining lines, values behind:

SMILES	melting point
CCCOC(=O)c1sc(C(=O)OCCC)c(OS(=O)(=O)c2ccc(Br)cc2)c1C	73 to 74 °C
Nc1ccc(C(=O)N2CCCCc3sc(Cl)cc32)cc1	146 to 149 °C
CC#CC(C)(C)NC(=O)C(CC)Oc1cc(C#N)cc(OC)c1 (stereo not drawn)	97 to 98 °C
COc1cnc(N2CCN(c3ccc(N)cc3)CC2)nc1	125 °C
C=C1CC2(C)C(CCC2(C)O)C2CCC3=CC(=O)CCC3(C)C12 (stereo not drawn)	155 to 157 °C
O=[N+]([O-])C=C1SCCN1Cc1ccco1	190 to 192 °C
Cc1cc(NC(=O)c2cnoc2C2CC2)ccc1Br	133 to 135 °C
CN(C=O)CC1(N2CCCCC2)CCCCC1	94 °C
COc1ccc(C2(O)CCN(CC3CN(c4ccccc4)C(=O)O3)CC2)cc1 (stereo not drawn)	121 to 122 °C
CC(C)(C)c1cc(-c2c(NC(=O)Nc3ccc(F)cc3F)c(=O)oc3ccc(Cl)cc23)cc(C(C)(C)C)c1O	244 to 246 °C
CNc1cccc2c1OC1(CC1)C2=O	98.2 °C
CS(=O)(=O)c1ccc(-c2cnn(-c3ccc(F)c(F)c3)c(=O)c2Cc2ccccc2)cc1	166 to 168 °C
Clc1ncnc(Cl)c1I	135 to 136 °C
CCOC(=O)c1ccc(-c2ccc(-c3ccc(C(F)(F)F)cc3)n2C)cc1	150 to 151 °C
COC(=O)CCC(=O)c1ccc(-c2ccc(OC)cc2)cc1	96 to 100 °C
CCOC(=O)c1cc(O)c(C(=O)c2ccccc2)c([N+](=O)[O-])c1	167 to 168 °C
CCCCCCCCCCCCCCOc1ccc(CBr)cc1	40 to 41 °C
O=C(O)c1cnc2ccoc2c1	238 to 239 °C
CCOC(=O)c1ccc(OCC2CCN(c3ccc(OC)nn3)CC2)cc1	147 °C
CCc1ccn(-c2ccc(S(C)(=O)=O)cc2)c1-c1ccc(F)cc1	107 to 108 °C
Cc1ccc2c(c1)c(-c1ccc(F)cc1)cn2N	116 to 120 °C
Cc1nc2ccccc2n1-c1nc(Cl)nc(Cl)n1	> 300 °C

SMILES	melting point
COc1cc(C(N)=O)ccc1-c1nc2cc3c(cc2[nH]1)NC(=O)C3(C)C	265 to 270 °C
O=C1c2ccccc2N2CCCN3CCN1C32 (stereo not drawn)	144 to 146 °C
O=C1CC2CCSc3ccccc3C2=NN1c1ccccc1 (stereo not drawn)	138 to 140 °C
OCCCc1cccc(CCCO)c1O	176 to 187 °C
Cc1ccc(S(=O)(=O)Oc2cc(C=O)cc(OS(=O)(=O)c3ccc(C)cc3)c2OS(=O)(=O)c2ccc(C)cc2)cc1	159 °C
CN(C(CCn1c(=O)cc(Cl)[nH]c1=O)C(=O)NO)S(=O)(=O)c1ccc(Oc2cccc(Cl)c2)cc1 (stereo not drawn)	168 to 170 °C
Cc1cc(C2(C(F)(F)F)CC(c3ccc(Cl)cc3)=NN2C)ccc1NC(=O)c1cccc(I)c1C(=O)NC(C)C (stereo not drawn)	90 to 92 °C
COC(=O)[C@@H]1C[C@H](NC(C)=O)C(=O)[C@H]2[C@@]1(C)CC[C@H]1C(=O)O[C@H](c3ccoc3)C[C@]21C	222 to 224 °C
CCC(NS(=O)(=O)c1ccc(F)cc1)P(=O)(Oc1ccccc1)Oc1ccccc1 (stereo not drawn)	148 to 151 °C
O=C1c2cc(F)ccc2C(=O)c2c1nc1ccccn21	> 260 °C
CCC(=O)NCCC1CCc2ccn3nccc3c21 (stereo not drawn)	72 to 73 °C
COC(=O)Cc1ccc2oc(-c3ccc(OC)c(OC)c3)c(SC)c2c1	91 °C
O=P(O)(O)CCCCc1ccccc1	88 to 90 °C
CN(C)Cc1ccc(-c2csc(NC(=N)N)n2)o1	> 200 °C
COc1ccc(S(C)(=O)=O)cc1C(=O)O	189 to 191 °C
CC(=O)NNC(=O)NC1c2ccccc2Oc2ccccc21	226 to 228 °C
C=C(C)C=CCC(C)C1CCC2(C)C1(C)CCC1C3(C)CCC(OC(C)=O)CC3CCC12C (stereo not drawn)	120 to 125 °C
CCCC1(CC(=O)OCC)OCCc2c1[nH]c1c(C)cc(F)c(Br)c21 (stereo not drawn)	137 to 138 °C
NCCCc1ccc2c(n1)NCCC2	66 to 68.5 °C
CCCCC1(N(C)C)CCC(c2[nH]c3ccccc3c2C)(c2[nH]c3ccccc3c2CCNC(=O)Nc2ccccc2)CC1 (stereo not drawn)	115 to 120 °C
CCCC1=NN(c2ccc(S(=O)(=O)O)cc2)C(=O)C1=CNc1ccccc1CC	205 °C
Cc1cc(SC2=C(O)CC(C3CCCC3)(C3CCCC3)OC2=O)c(C(C)(C)C)cc1OCCO	90 to 92 °C

From a melting point compilation (Tetko et al.; mined from patent text by program, amines drawn as free bases though some values may be those of a salt)
